Measured values published in the NIST ThermoML archive (doi:10.1016/j.tca.2018.07.003).
± gives the expanded uncertainty stated by the source. Values belong to the compound of their own block, whether it stands above or below them.

Key:
[1] = 295 K; 77 kPa; Liquid; transient hot wire
[2] = heat capacity at constant pressure per volume; wn = mass fraction of the nth substance listed; conditions: 295 K, 77 kPa, Liquid, From thermal conductivity and thermal effusivity measured separately
[3] = wn = mass fraction of the nth substance listed; conditions: 295 K, 77 kPa, Liquid, transient hot wire

thermal conductivity [1]: 0.254 ± 0.01 W/m/K
Structure (SMILES): OCCO [1,2-ethanediol]

thermal conductivity [1]: 0.6 ± 0.02 W/m/K
Structure (SMILES): O [water]

thermal conductivity [1]: 0.119 ± 0.004 W/m/K
Structure (SMILES): CCCCCCC [heptane]

thermal conductivity [1]: 0.208 ± 0.008 W/m/K
Structure (SMILES): CO [methanol]

thermal conductivity [1]: 0.289 ± 0.01 W/m/K
Structure (SMILES): OCC(O)CO [glycerol]

thermal conductivity [1]: 0.096 ± 0.004 W/m/K
Structure (SMILES): CC(C)CC(C)(C)C [2,2,4-trimethylpentane]

heat capacity ([2]; w2 = 0): 1480000 ± 100000 J/K/m3
thermal conductivity ([3]; w2 = 0): 0.119 ± 0.004 W/m/K
Structure (SMILES): CCCCCCC [heptane] + CC(C)CC(C)(C)C

heat capacity ([2]; w1 = 0.2): 1390000 ± 90000 J/K/m3
heat capacity ([2]; w1 = 0.4): 1310000 ± 90000 J/K/m3
heat capacity ([2]; w1 = 0.6): 1310000 ± 80000 J/K/m3
heat capacity ([2]; w1 = 0.8): 1290000 ± 80000 J/K/m3
heat capacity ([2]; w1 = 1): 1340000 ± 90000 J/K/m3
thermal conductivity ([3]; w1 = 0.2): 0.116 ± 0.004 W/m/K
thermal conductivity ([3]; w1 = 0.4): 0.113 ± 0.004 W/m/K
thermal conductivity ([3]; w1 = 0.6): 0.107 ± 0.004 W/m/K
thermal conductivity ([3]; w1 = 0.8): 0.104 ± 0.004 W/m/K
thermal conductivity ([3]; w1 = 1): 0.096 ± 0.004 W/m/K
Structure (SMILES): CC(C)CC(C)(C)C [2,2,4-trimethylpentane] + CCCCCCC
